# Laboratory results reported in patent US20150337315A1, “COMPOSITIONS AND METHODS TARGETING SIGNALING BY THE G PROTEIN BETA-GAMMA SUBUNIT FOR THE TREATMENT OF ASTHMA” (priority 2014, published 2015).
# “Also recorded” adds a separate entry of the source.
# Experiments:
# [1] = tested on: PDE activity in asthmatic HASM cells; test: cAMP PDE activity assay in lysates of treated or siRNA-transfected asthmatic HASM cells; type: cell-based, human; conditions: for effect on heightened basal PDE activity: × 2 hr
# Method: Primary cultures of HASM cells derived from bronchial smooth muscle freshly isolated post-mortem from normal non-asthmatic (n=3) and asthmatic (n=4) donor lungs were purchased at passage 2-3 from Lonza Walkersville, Inc. Other than data regarding age, race, and gender of the donors provided in Table 1, limited information was available with respect to clinical severity of asthma, treatment history, or cause of death, with exception to asthma donor #1. All the experiments were conducted at passage 5-6, after growing the cells in Lonza's serum-containing SmBM medium supplemented with the BulletKit medium that contains insulin, human FGF, gentamycin/amphotericin B. The cells were maintained throughout in a humidified incubator containing 5% CO2 in air at 37° C. and, after attaining ˜90% confluence, cells were growth arrested for 24 hr in serum-free Ham's F12 medium. Thereafter, the cells were examined for constitutive and induced changes in PDE activity, levels of free Gβ, c-Src and ERK1/2 phosphorylation, and PDE4D protein expression, all in the absence and presence of different pretreatment conditions, as described.
# Levels of total cAMP PDE activity were determined in normal and asthmatic HASM cells at baseline and at different times ranging from 0.25-24 hr following administration of a maximally effective concentration of either: 1) a cell permeable anti-Gβγ blocking peptide (1 μM; AnaSpec; Premont, Calif.), comprised of a membrane permeable sequence (MPS; 15 amino acids) conjugated to the Gβγ-sequestering C-terminal domain (28 amino acids) of phosducin-like protein [28]; 2) the inert MPS peptide alone (1 μM) serving as a negative-control; or 3) 1 μM of gallein [29], a recently described small molecule inhibitor of Gβγ signaling (Acros Organics). PDE activity was also assayed in normal and asthmatic HASM cells following dose-dependent administration of anti-Gβγ blocking peptide (0.01-10 μM), and following treatment with various small molecule inhibitors, as described. The PDE activity assay was performed in the HASM cell lysates using a colorimetric, non-radioactive enzymatic assay (Enzo Life Sciences; Plymouth Meeting, Pa.) as per the manufacturer's protocol, with some modification of our previously described approach. Specifically, to maximize the sensitivity and yield of the measurement enzyme activity, we used materials including a cell lysis buffer completely free of phosphate, composed of 50 mM Tris, pH 7.5, 0.1 mM EDTA, 0.1 mM EGTA, 1 mM DTT and 0.2% NP-40. The measured levels of PDE activity were standardized to protein content in the cell extracts. Finally, PDE activity was also assayed in normal and asthmatic HASM cells following transfection with siRNA preparations targeted at suppressing specific signaling molecules, as described below.
# Targeted protein suppression using siRNA preparations was examined in normal and asthmatic HASM cells that were initially seeded into 6-well plates and, at ˜40% confluency, the medium was replaced with the reduced serum-containing medium, Opti-MEM (Invitrogen). Cells were then transfected twice during a 24-hr interval with pools of siRNA preparations, each pool comprised of three siRNA duplexes targeted against either human Rap1GAP (Ambion; ID: s11785, s11786, s11787), RGS14, (Ambion; ID: 18059, 18147, 135857), or the PKAα catalytic subunit (Santa Cruz Biotechnology; Pool ID: sc-36240), as well as a non-targeted (scrambled) siRNA duplex serving as a negative control. As previously described [16.17.31], the transfections were carried out using Oligofectamine (Invitrogen) as the transfection agent, and the pools of siRNAs were applied to each well at a final concentration of 100 nM for each siRNA preparation.
# free Gβ protein levels = test: Immunoblot of free Gβ protein in IL-13-treated normal HASM cells; type: cell-based, human; conditions: IL-13 50 ng/ml, 50 μg/ml printed
# Method: (§1) Levels of total and phosphorylated c-Src at residue Tyr416 and ERK1/2 proteins, as well as Gβ protein, were detected by Western blot analysis of lysates isolated from normal and asthmatic HASM cells before and at various times after treatment either with 1 μM of anti-Gβγ blocking peptide or gallein, or the c-Src family tyrosine kinase-selective inhibitor, SU6656 (10 μM), or exposure to the pro-asthmatic Th2 cytokine, IL-13 (50 ng/ml), as described. Following protein extraction and addition of gel loading buffer, the cellular extracts were loaded on a 10% SDS-PAGE gel for immunoblotting after transfer to a PVDF membrane. The membranes were then incubated overnight with monoclonal mouse anti-human primary antibodies directed against c-Src, phospho-c-Src^Tyr416, ERK1/2 and phospho-ERK1/2 (Millipore; Billerica, Mass.), and a rabbit anti-human polyclonal antibody directed against the Gβ subunit (Millipore; Billerica, Mass.). Protein levels were detected by ECL after a 1-hr incubation with a 1:2,000 dilution of HRP-conjugated secondary antibody, followed by exposure to autoradiography film. The protein band intensities were quantified by densitometry.
# [2] = tested on: co-localization of p-Src with immunoprecipitated Gβ; test: Co-IP of p-Src with immunoprecipitated Gβ in IL-13-treated normal HASM cells; type: cell-based, human; conditions: IL-13 × 60 min
# Method: as §1, with “The membranes were then incubated overnight with monoclonal mouse anti-human primary antibodies directed against c-Src, phospho-c-Src^Tyr416, ERK1/2 and phospho-ERK1/2 (Millipore; Billerica, Mass.), and a rabbit anti-human polyclonal antibody directed against the Gβ subunit (Millipore; Billerica, Mass.).” left out
# (§2) Normal and asthmatic HASM cells were prepared for co-immunoprecipitation (Co-IP) studies, performed as previously described, under native conditions in order to preserve protein-protein associations. […] The precipitated immunocomplexes were subsequently analyzed by immunoblotting using either anti-Gβ, anti-phospho-c-Src^Tyr416, anti-ERK1/2, or anti-PDE4D rabbit polyclonal antibody, or anti-Rap1GAP rabbit monoclonal IgG antibody (Millipore; Billerica, Mass.).
# [3] = tested on: PDE activity evoked in cultured normal HASM cells; conditions: sensitized under various proasthmatic conditions; [16-18]; cited from earlier work
# [4] = tested on: isolated rabbit ASM tissues; conditions: sensitized under various proasthmatic conditions; [16-18]; cited from earlier work
# [5] = tested on: co-localization of ERK1/2 with PDE4D; test: Co-IP of PDE4D with immunoprecipitated ERK1/2 in asthmatic HASM cells; type: cell-based, human; conditions: within 30 min
# Method: Normal and asthmatic HASM cells were prepared for co-immunoprecipitation (Co-IP) studies, performed as previously described, under native conditions in order to preserve protein-protein associations. After indicated treatments, cells were harvested and then exposed to lysis buffer. 1.5 mg of Protein G Dynabeads (Invitrogen; Carlsbad, Calif.) were incubated with 10 μg of anti-Gβ rabbit IgG (Millipore) or anti-Gα (pan) rabbit polyclonal antibody (Millipore; Billerica, Mass.) and incubated for 10 min at room temperature with rotation. Following several washes, the bound bead/antibody complex was added to sample, mixed by pipetting, and incubated for 2 hr at 4° C. with rotation. The captured bead/Protein G/antigen complex was then washed several times and eluted at pH 3.0 with rotation at room temperature. The precipitated immunocomplexes were subsequently analyzed by immunoblotting using either anti-Gβ, anti-phospho-c-Src^Tyr416, anti-ERK1/2, or anti-PDE4D rabbit polyclonal antibody, or anti-Rap1GAP rabbit monoclonal IgG antibody (Millipore; Billerica, Mass.).
# [6] = tested on: phosphorylated c-Src (p-Src); test: Immunoblot of phosphorylated c-Src (Tyr416) in asthmatic HASM cells; type: cell-based, human
# Method: as §1
# allergic rabbits = conditions: previous study (18); cited from earlier work
# [7] = tested on: phosphorylated ERK1/2 (p-ERK1/2); test: Immunoblot of phosphorylated ERK1/2 in asthmatic HASM cells; type: cell-based, human; conditions: 1 μM × 30 min
# Method: as §1
# [8] = tested on: co-localization of Gβ with immunoprecipitated Gα; test: Western blot / Co-IP of free Gβ and Gα-associated Gβ in normal HASM cells; type: cell-based, human; conditions: 1 μM, 30 min
# Method: as §1, with “The membranes were then incubated overnight with monoclonal mouse anti-human primary antibodies directed against c-Src, phospho-c-Src^Tyr416, ERK1/2 and phospho-ERK1/2 (Millipore; Billerica, Mass.), and a rabbit anti-human polyclonal antibody directed against the Gβ subunit (Millipore; Billerica, Mass.).” left out
# as §2
# [9] = tested on: co-localization of Gβ with immunoprecipitated Gα; test: Western blot / Co-IP of free Gβ and Gα-associated Gβ in asthmatic HASM cells; type: cell-based, human; conditions: 1 μM, 30 min
# Method: as §1, with “The membranes were then incubated overnight with monoclonal mouse anti-human primary antibodies directed against c-Src, phospho-c-Src^Tyr416, ERK1/2 and phospho-ERK1/2 (Millipore; Billerica, Mass.), and a rabbit anti-human polyclonal antibody directed against the Gβ subunit (Millipore; Billerica, Mass.).” left out
# as §2
# asthmatic individuals = conditions: cited from earlier work
# [10] = tested on: PDE activity detected in cultured asthmatic HASM cells; conditions: recent report [27]; cited from earlier work
compound,measurement,setting,value
N#CC(=C(/N)Sc1ccccc1N)/C(C#N)=C(\N)Sc1ccccc1N [U0126],effect on heightened basal PDE activity,[1]; 5 μM,acutely reversed to near normal levels; also recorded: acutely suppressed the elevated PDE activity in asthmatic HASM cells to near normal levels
IL-13: pro-asthmatic Th2 cytokine used as stimulus,time of peak of evoked increase in free Gβ levels,free Gβ protein levels,60 to 90 min
same,effect on co-localization of p-Src with immunoprecipitated Gβ,[2]; relative to unstimulated cells,increased co-localization; also recorded: enhanced co-localization
COc1ccc(C2CNC(=O)C2)cc1OC1CCCC1 (centres unmarked) [rolipram],effect on heightened constitutive PDE activity,"[1]; 10 μM × 1 hr, data not shown",completely abrogated
same,effect on increased PDE activity evoked in cultured normal HASM cells,[3],inhibits
same,effect on increased PDE activity evoked in isolated rabbit ASM tissues,[4],inhibits
Oc1ccc(-c2nc(-c3ccncc3)c(-c3ccc(F)cc3)[nH]2)cc1 [SB202190],effect on heightened basal PDE activity,[1]; 10 μM,no significant effect
O=C1OC2(c3ccccc31)c1ccc(O)c(O)c1Oc1c2ccc(O)c1O [gallein],effect on heightened co-localization of ERK1/2 with PDE4D,[5],acutely reversed
same,effect on constitutively increased p-Src levels,[6]; 1 μM × 30 min,acutely suppressed
same,effect of pretreatment on in vivo AHR elicited by allergen challenge,allergic rabbits,only suppressed AHR
same,effect of pretreatment on pulmonary inflammation elicited by allergen challenge,allergic rabbits,no appreciable inhibitory effect
same,time at which PDE activity is suppressed to normal levels,[1]; 1 μM,0.25 h
same,effect on constitutively increased PDE activity in asthmatic HASM cells,"[1]; 1 μM (maximally effective concentration), acute effect",similarly acutely suppressed
same,duration of suppression of PDE activity,"[1]; 1 μM, followed up to 24 hr",transient in nature
same,effect on constitutively increased p-ERK1/2 levels,[7],acutely suppressed
same,effect on Gβ distribution,[8],neither inhibitor had an effect
same,effect of pretreatment on IL-13-induced co-localization of p-Src with immunoprecipitated Gβ,[2],abrogated
same,"effect on Gβ distribution (increased free Gβ, reduced Gα-associated Gβ)",[9],acutely reversed
O=S(=O)(NCCNC/C=C/c1ccc(Br)cc1)c1cccc2cnccc12 [H89],effect on heightened basal PDE activity,[1]; 10 μM,no significant effect
O=C(Nc1c(Cl)cncc1Cl)c1ccc(OC(F)F)c(OCC2CC2)c1 [roflumilast],effect on airway hyperresponsiveness following allergen challenge,"asthmatic individuals; [19,21]",decreases airway hyperresponsiveness
same,effect on lung function,asthmatic individuals; [20],improves lung function
same,effect on increased PDE activity in cultured asthmatic HASM cells,[10],inhibited
CN(C)S(=O)(=O)c1ccc2c(c1)/C(=C/c1cc3c([nH]1)CCCC3)C(=O)N2 [SU6656],effect on constitutively increased p-Src levels,[6]; SU6656 10 μM,suppressive effect
same,effect on heightened basal PDE activity,[1]; 10 μM,suppressed to near normal levels; also recorded: acutely reversed to near normal levels
O=c1cc(N2CCOCC2)oc2c(-c3ccccc3)cccc12 [LY294002],effect on heightened basal PDE activity,[1]; 10 μM,no significant effect
COc1ccc([C@]2(C#N)CC[C@@H](C(=O)O)CC2)cc1OC1CCCC1 [cilomilast],effect on increased PDE activity in cultured asthmatic HASM cells,[10],inhibited
